Two compounds from ChEMBL document CHEMBL5528044, “Exploring the Function of (+)-Naltrexone Precursors: Their Activity as TLR4 Antagonists and Potential in Treating Morphine Addiction” (J Med Chem, 2024) can be followed below.

The target of data set [1] is T1, Toll-like receptor 4 (Mus musculus, UniProt Q9QUK6).
T1 sequence (Q9QUK6 whole entry): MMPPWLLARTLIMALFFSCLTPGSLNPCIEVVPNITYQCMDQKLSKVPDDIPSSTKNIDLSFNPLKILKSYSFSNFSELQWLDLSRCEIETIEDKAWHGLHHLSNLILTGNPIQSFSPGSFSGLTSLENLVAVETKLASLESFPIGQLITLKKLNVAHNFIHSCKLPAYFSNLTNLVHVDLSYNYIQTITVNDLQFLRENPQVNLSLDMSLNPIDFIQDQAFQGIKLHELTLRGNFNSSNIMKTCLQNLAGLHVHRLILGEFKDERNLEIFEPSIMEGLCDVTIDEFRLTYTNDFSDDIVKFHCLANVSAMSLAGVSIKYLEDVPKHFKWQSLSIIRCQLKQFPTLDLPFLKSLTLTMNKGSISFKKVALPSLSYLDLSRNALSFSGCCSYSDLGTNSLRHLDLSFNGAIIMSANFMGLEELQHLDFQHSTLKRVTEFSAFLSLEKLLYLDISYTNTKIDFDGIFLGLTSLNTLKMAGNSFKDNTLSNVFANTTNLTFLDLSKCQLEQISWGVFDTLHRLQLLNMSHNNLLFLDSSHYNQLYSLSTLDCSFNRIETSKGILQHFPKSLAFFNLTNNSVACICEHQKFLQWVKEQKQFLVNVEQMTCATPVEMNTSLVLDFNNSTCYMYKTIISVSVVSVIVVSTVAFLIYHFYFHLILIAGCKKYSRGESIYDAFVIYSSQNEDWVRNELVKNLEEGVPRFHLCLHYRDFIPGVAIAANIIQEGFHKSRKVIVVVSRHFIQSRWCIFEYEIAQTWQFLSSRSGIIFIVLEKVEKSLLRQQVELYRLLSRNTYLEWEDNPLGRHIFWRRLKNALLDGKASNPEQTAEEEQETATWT
Briefly: Antagonist activity at TLR4 in mouse BV-2 cells assessed as inhibition of LPS-induced NO overproduction incubated for 24 hrs by 2,3-diaminonaphthalene reagent based microplate reader analysis. The format is cell-based.

Data set [2] can be described thus: AUC (0 to infinity) in Balb/c mouse at 2 mg/kg,iv administration and measured upto 24 hrs by LC-MS/MS analysis. The format is ADME, organism-based. The conditions noted are these: in vivo.
A short description of data set [3]: Half life in Balb/c mouse at 20 mg/kg,po administration and measured upto 24 hrs by LC-MS/MS analysis. It counts as ADME, organism-based. The settings on record: in vivo.
Data set [4] concerns the target T1, Toll-like receptor 4. Briefly: Antagonist activity at TLR4 in mouse BV-2 cells assessed as inhibition of LPS-induced TNF-alpha production by ELISA. The format is cell-based. A general note: ELISA stands for enzyme-linked immunosorbent assay.
Data set [5] deals with T2, Toll-like receptor 4 (Mus musculus) (UniProt Q9QUK6).
T2 sequence (whole entry): T1 sequence (Q9QUK6 whole entry)
Briefly: Antagonist activity at TLR4 signaling pathway in mouse BV-2 cells assessed as inhibition of LPS-induced MyD88 recruitment at 5 uM incubated for 1 hr by co-immunoprecipitation based Western blot analysis. The format is cell-based.

In data set [6] the target is T2, Toll-like receptor 4 (Mus musculus). Description: Antagonist activity at TLR4 signaling pathway in mouse BV-2 cells assessed as downregulation of LPS-induced IKKalpha phosphorylation at 5 uM incubated for 1 hr by Western blot analysis. It counts as cell-based. The conditions noted are these: filed as antagonist.
Data set [7] shares this target. Description: Antagonist activity at TLR4 signaling pathway in mouse BV-2 cells assessed as downregulation of LPS-induced IKKbeta phosphorylation at 5 uM incubated for 1 hr by Western blot analysis. It counts as cell-based. The settings on record: filed as antagonist. In general terms: A western blot detects proteins with antibodies after separation by electrophoresis.

The target is the same in data set [8]. Description: Antagonist activity at TLR4 signaling pathway in mouse BV-2 cells assessed as downregulation of LPS-induced IRF-3 phosphorylation at 5 uM incubated for 1 hr by Western blot analysis. The format is cell-based. The settings on record: filed as antagonist.
Data set [9] is described as follows: Toxicity in morphine-induced Balb/c mouse assessed body weight loss at 0.2 mg/kg,ip administrated for 1 week. The format is organism-based. The conditions noted are these: in vivo, 168 h, time 1 weeks.
The test system of data set [10] is Mus musculus. Description: Inhibition of morphine-induced addiction behavior in Balb/c mouse assessed reduction in CPP score at 0.2 mg/kg,ip administrated for 6 consecutive days by conditioned place preference assay. The format is functional, organism-based.
Data set [11] has as its system Mus musculus. Briefly: Inhibition of chronic morphine-induced microglia activation in Balb/c mouse assessed as reduction in Iba1 expression in nucleus accumbens region at 0.2 mg/kg,ip administrated for 6 consecutive days by immunofluorescence staining based analysis. The format is functional, organism-based.
The nature of data set [12]: Clearance in Balb/c mouse at 2 mg/kg,iv administration and measured upto 24 hrs by LC-MS/MS analysis. The format is ADME, organism-based. The settings on record: in vivo.

Broadly, the IC50 is the concentration needed to halve the response being measured. Usually AUC(0-inf) stands for the area under the concentration-time curve extrapolated to infinity. The low end stands for low exposure, the high end for high exposure. What is called half-life is how long it takes for the measured level to halve. A word on the clearance: it is a measure of how efficiently the substance is removed, as volume per time. A low value points to a low capacity for elimination.

Calls of active or inactive are those of the source. No cut-off for these calls is given here.

Regarding `COc1ccc2c3c1O[C@@H]1C(=O)C=C[C@]4(O)[C@H](C2)N(C)CC[C@@]314` (single isomer, unassigned), the IC50 at Toll-like receptor 4 [1] came out at 1.3 µM; at Toll-like receptor 4 [4] it was 4.2 µM. For the same compound, in data set [2], the AUC(0-inf) came to 16.5 ng·h/mL. In [3], the half-life is 2.2 h. The result in [5] was inactive. For the same compound, the outcome in data set [6], in data set [7] and in [8] was Active. Moreover, the Activity result in data set [9] is listed as “Non-Toxic”. The inhibition entry in the data set with Mus musculus [10] and in the data set with Mus musculus [11] was “Active” in each case.

As for `CN1CC[C@@]23c4c5ccc(O)c4O[C@@H]2C(=O)C=C[C@]3(O)[C@@H]1C5` (single isomer, unassigned), the IC50 turned out to be 1 µM at Toll-like receptor 4 [1] and 2.3 µM at Toll-like receptor 4 [4]. Also, in data set [12], the clearance was 469 mL/min/kg. In [2], this compound came in with an AUC(0-inf) of 71.8 ng·h/mL. This compound also had a half-life in data set [3] of 8.9 h. In addition, in data set [5], the result was inactive. Moreover, the outcome in data set [6], in [7] and in data set [8] was Active. Further, in data set [9], the Activity result is listed as “Non-Toxic”. Also, the inhibition result in the data set with Mus musculus [10] and in the data set with Mus musculus [11] was “Active” throughout.
